The assay relates to T1, PIM-1 or PIM-2.
T1 construct: fused on or other part: C-terminal histidine tag (PIM-1 enzyme); N-terminal histidine tag (PIM-2 enzyme)
Nature of the assay: PIM-1 / PIM-2 biochemical assay (ADP Hunter assay kit). Also on record: species or system human. Particulars: tested in either the PIM-1 or the PIM-2 biochemical assay (as appropriate); ATP 100 μM.
Excerpt: The biochemical assay to measure PIM-1 activity relies on the ADP Hunter assay kit (DiscoveRx Corp., Cat. # 90-0077), that determines the amount of ADP as direct product of the kinase enzyme activity.
The enzyme has been expressed and purified in-house as a recombinant human protein with a C-terminal histidine tag. The protein is active and stable.
(§1) Assay conditions were as indicated by the kit manufacturers with the following adaptations for the kinase activity step: • Kinase assay buffer and assay volume stay as recommended (15 mM HEPES, pH 7.4, 20 mM NaCl, 1 mM EGTA, 0.02% Tween 20, 10 mM MgCl2 and 0.1 mg/ml bovine γ-globulins/75 μl assay volume) • Incubation time and temperature: 60 min at 30° C. • PIM-1 concentration: 50 pg/μl • ATP concentration: 100 μM • PIM-1 substrate peptide: PIMtide (ARKRRRHPSGPPTA) • Peptide concentration: 60 μM • Positive control for kinase activity inhibition: 1-10 μM Staurosporine • DMSO concentration have to stay below 2% during the kinase reaction
Assays were performed in either 96 or 384-well plates. The final outcome of the coupled reactions provided by the kit is the release of the fluorescent product Resorufin and has been measured with a multilabel HTS counter VICTOR V (PerkinElmer) using an excitation filter at 544 nm and an emission filter at 580 nm.
The biochemical assay to measure PIM-2 activity relies on the ADP Hunter assay kit (DiscoveRx Corp., Cat. # 90-0077), that determines the amount of ADP as direct product of the kinase enzyme activity.
The enzyme has been expressed and purified in-house as a recombinant human protein with a N-terminal histidine tag. The protein is active and stable.
as §1, with “mg/ml bovine γ-globulins/20 μl assay” for “mg/ml bovine γ-globulins/75 μl assay”, “and temperature: 30 min at” for “and temperature: 60 min at”, “C. • PIM-2 concentration: 350” for “C. • PIM-1 concentration: 50”, “PIM-2 concentration: 350 pg/μl •” for “PIM-1 concentration: 50 pg/μl •”, “Peptide concentration: 100 μM •” for “Peptide concentration: 60 μM •”

By IC50 is commonly meant the concentration that inhibits the measured activity by half. Read a low IC50 as greater potency in that assay.

For the molecule `COc1ccc(-c2ccc3ncc(C(=O)Nc4ccccc4)n3n2)cc1` [Example 46, 6-(4-Methoxy-phenyl)-imidazo[1,2-b]pyridazine-3-carboxylic acid phenyl-amide], the IC50 was determined as 380 nM.

The molecule `COc1ccc(CNc2ccc3nc(C)c(C(=O)Nc4ccccc4)n3n2)cc1` [Example 81, 6-(4-Methoxy-benzylamino)-2-methyl-imidazo[1,2-b]pyridazine-3-carboxylic acid phenylamide] came in with an IC50 of 8870 nM.

In the case of `CCNC(=O)c1cnc2ccc(NCc3ccc(Cl)c(Cl)c3)nn12` [Example 25, 6-(3,4-Dichloro-benzylamino)-imidazo[1,2-b]pyridazine-3-carboxylic acid ethylamide], the IC50 was found to be 2200 nM.

The molecule `CN(Cc1ccc(Cl)c(Cl)c1)c1ccc2ncc(C(=O)Nc3ccccc3)n2n1` [Example 42, 6-[(3,4-Dichloro-benzyl)-methyl-amino]-imidazo[1,2-b]pyridazine-3-carboxylic acid phenylamide] returned a concentration for half-maximal inhibition (IC50) of 60 nM.

Regarding `O=C(Nc1cnc2ccc(-n3ccnc3)nn12)c1ccc(O)cc1` [Example 103, 4-Hydroxy-N-(6-imidazol-1-yl-imidazo[1,2-b]pyridazin-3-yl)-benzamide], the IC50 came out at 14400 nM. This IC50 is about 240-fold higher than that of the molecule before.

In turn, `O=C(Nc1cnc2ccc(-c3ccccc3)nn12)c1ccccc1` [Example 84, N-(6-Phenyl-imidazo[1,2-b]pyridazin-3-yl)-benzamide] came in with an IC50 of 5230 nM. Compared with the last molecule, the IC50 is about 2.8-fold lower.

For `Cc1cc2ncc(C(=O)Nc3ccccc3)n2nc1NCc1ccc(Cl)c(Cl)c1` [Example 55, 6-(3,4-Dichloro-benzylamino)-7-methyl-imidazo[1,2-b]pyridazine-3-carboxylic acid phenylamide], half-maximal inhibition (IC50) required 70 nM.

`O=C(Nc1cnc2ccc(NCc3ccc(F)cc3)nn12)c1ccccc1` [Example 90, N-[6-(4-Fluoro-benzylamino)-imidazo[1,2-b]pyridazin-3-yl]-benzamide] came in with an IC50 of 1150 nM.

Molecule `Cc1cc(NCc2ccc(Cl)c(Cl)c2)nn2c(C(=O)Nc3ccccc3)cnc12` [Example 54, 6-(3,4-Dichloro-benzylamino)-8-methyl-imidazo[1,2-b]pyridazine-3-carboxylic acid phenylamide] registered an IC50 of 70 nM.

As for `O=C(Nc1ccc(O)cc1)c1cnc2ccc(NCc3ccc(F)cc3)nn12` [Example 32, 6-(4-Fluoro-benzylamino)-imidazo[1,2-b]pyridazine-3-carboxylic acid (4-hydroxy-phenyl)-amide], 70 nM corresponded to half-maximal inhibition (IC50).

`O=C(Nc1cnc2ccc(NCc3ccc(F)cc3)nn12)c1cccc(O)c1` [Example 102, N-[6-(4-Fluoro-benzylamino)-imidazo[1,2-b]pyridazin-3-yl]-3-hydroxy-benzamide] came in with an IC50 of 2250 nM.

Consider `COc1ccc(CNc2ccc3ncc(C(=O)Nc4ccc(C(=O)O)cc4)n3n2)cc1` [Example 30], for which inhibition was half-maximal at 380 nM (IC50). This IC50 is about 5.9-fold lower than that of the molecule before.

`Cc1nc2ccc(NCc3ccc(F)cc3)nn2c1C(=O)Nc1ccccc1` [Example 80, 6-(4-Fluoro-benzylamino)-2-methyl-imidazo[1,2-b]pyridazine-3-carboxylic acid phenylamide] came in with a half-inhibitory concentration (IC50) of 4550 nM.

For the molecule `O=C(Nc1cccnc1)c1cnc2ccc(NCc3ccc(Cl)c(Cl)c3)nn12` [Example 23, 6-(3,4-Dichloro-benzylamino)-imidazo[1,2-b]pyridazine-3-carboxylic acid pyridin-3-yl-amide], the IC50 stood at 130 nM. This IC50 lies about 35-fold lower than the previous one.

With `CCOC(=O)c1cccc(NC(=O)c2cnc3c(C)cc(NCc4ccc(OC)cc4)nn23)c1` [Example 64, 3-{[6-(4-Methoxy-benzylamino)-8-methyl-imidazo[1,2-b]pyridazine-3-carbonyl]-amino}-benzoic acid ethyl ester], the midpoint of inhibition, the IC50, lay at 160 nM.

Consider `O=C(Nc1ccc2[nH]ccc2c1)c1cnc2ccc(NCc3ccc(Cl)c(Cl)c3)nn12` [Example 17, 6-(3,4-Dichloro-benzylamino)-imidazo[1,2-b]pyridazine-3-carboxylic acid (1H-indol-5-yl)-amide], for which the IC50 stood at 430 nM.

The values above are taken from patent publication US20110046127A1, “Imidazopyridazines for Use as Protein Kinase Inhibitors” (priority 2007, published 2011).
